This note sets out measurements from patent US6750177B2, “Herbicide combination with acylated aminophenylsulfonylureas” (priority 2002, dated 2004).

Each structure is given as a SMILES string. Like-named read-outs stand apart in the source and are kept apart here.

Assay type in all cases: in vivo
For one data set, the system named is Polygonum convolvulus. Nature of the data set: Herbicidal action (field trials), Polygonum convolvulus. The settings on record: Fallopia convolvulus, field trial. Here is the method:
(§1) The seeds or rhizome pieces of typical harmful plants were planted and grown under natural field conditions. Before the harmful plants had emerged or after the harmful plants had emerged, they were treated, as a rule at the 2- to 8-leaf stage, with various dosages of the compositions according to the invention at a water application rate of 100 to 400 I/ha (converted).
(§2) After the treatment (approx. 4-6 weeks after application), the herbidical activity of the active ingredients or active ingredient mixtures was scored visually by comparing the treated plots with the untreated control plots. Damage and development of all aerial parts of the plants was recorded. Scoring was done on a percentage scale (100% action=all plants dead; 50% action=50% of the plants and green plant parts dead; 0% action=no discernible action=like control plot). The score figures of in each case 4 plots was averaged.
(§3) The results are shown in the tables which follow, the action when using active ingredients (A+B) and (C) independently being stated in brackets.

The next data set deals with Maize. On the procedure:
as §1, §2, §3

The subject of a further data set is Setaria spp. Nature of the data set: Herbicidal action (field trials), Setaria spp. As to conditions: field trial. Here is the method:
as §1, §2, §3

In another data set the test system is Sorghum verticillata. Kind of data set: Herbicidal action (field trials), Sorghum verticillata. As to conditions: 60 g As/ha, field trial. Here is the method: as §1, §2, §3

With `N#Cc1cc(Br)c(O)c(Br)c1` [bromoxynil (C33), 3,5-dibromo-4-hydroxybenzonitrile], in the data set on Polygonum convolvulus (240 g As/ha), the inhibition (commonly the relative decrease from the control value, in per cent) at 240 g/ha was found to be 40%. In the data set on Maize (240 g As/ha, field trial (table part with Polygonum convolvulus)), this compound gave a Maize % damage of 2%.

`COc1c(Cl)ccc(Cl)c1C(=O)O` [dicamba (C20), 3,6-dichloro-o-anisic acid] showed an inhibition at 60 g/ha with Polygonum convolvulus (60 g As/ha) of 35%. In the data set with Maize (60 g As/ha, field trial (table part with Polygonum convolvulus)), this compound registered a Maize % damage of 0%.

In turn, `COc1cc(OC)nc(NC(=O)NS(=O)(=O)c2c(C(=O)O)c(Cl)nn2C)n1` [halosulfuron (C40), 3-chloro-5-(4,6-dimethoxypyrimidin-2-ylcarbamoylsulfamoyl)-1-methylpyrazole-4-carboxylic acid] returned a Maize % damage with Maize (36 g As/ha, field trial (table part with Setaria spp.)) of 3%. Moreover, the inhibition at 36 g/ha with Setaria spp. (36 g As/ha) was determined as 0%.

Take `COc1cc(OC)nc(NC(=O)NS(=O)(=O)c2ncccc2C(=O)N(C)C)n1` [nicosulfuron (C15), 2-(4,6-dimethoxypyrimidin-2-yl)-3-(3-dimethylcarbamoyl-2-pyridylsulfonyl)urea]: the Maize % damage with Maize (60 g As/ha, field trial (table part with Sorghum verticillata)) is 0%. Besides, in the data set on Sorghum verticillata, the inhibition at 60 g/ha turned out to be 74%.

Compound `COc1nc(C)nc(NC(=O)NS(=O)(=O)c2ccccc2CCC(F)(F)F)n1` [prosulfuron (C42), 1-(4-methoxy-6-methyl-1,3,5-triazin-2-yl)-3-[2-(3,3,3-trifluoropropyl)phenylsulfonyl]urea] registered a Maize % damage with Maize (40 g As/ha, field trial (table part with Setaria spp.)) of 7%. In the data set on Setaria spp. (40 g As/ha), this compound had an inhibition at 40 g/ha of 15%.
